Test results published in patent EP4635488A1, “PHARMACEUTICAL COMPOSITION FOR PREVENTING OR TREATING BONE DISEASES” (Industry Foundation of Chonnam National University, priority 2022, dated 2024).

Experiments:
BMDMs = assay: Cell viability assay of BMM/BMDMs; format: cell-based, C57/BL6 mice; conditions: below 4 µM; 48 hours
Method: (§1) Bone marrow cells (BMC) were obtained from 8-week-old female C57/BL6 mice by washing femurs and tibias with α-MEM. BMCs were then cultured overnight in full α-MEM containing 10% FBS, 100 U/mL penicillin, and 100 µg/mL streptomycin. Non-attached cells were collected and cultured with M-CSF (30 ng/ mL) for 3 days, and then the attached cells were used as BMM. All animal experiments were approved by Chonnam National University IACUC (approval number: CNU IACUC-YB-2019-49).
(§2) To generate osteoclasts, BMMs were harvested and cultured in a complete medium containing 30 ng/mL M-CSF and 50 ng/mL RANKL with or without compounds for approximately 4 days to obtain mature osteoclasts. Differentiated osteoclasts were fixed with 4% formalin for 15 minutes, and then the cells were stained using a TRAP staining kit. The spread of osteoclast areas could be observed under the microscope. The viability of BMM (1 × 10^4 cells/well) was assessed in a 96-well plate using a cell viability assay kit as previously described.

[1] = test system: F-actin belts of mature osteoclasts; assay: F-actin ring immunofluorescence analysis (phalloidin staining); format: cell-based, C57/BL6 mice
Method: (§3) Bone resorption analysis was performed by a conventional method. Briefly, BMMs (2 × 10^4 cells/well) were seeded into a coated 48-well plate provided in the kit. After culturing with or without the indicated doses of 25-KR-03 and PMSA-3-Ac until mature osteoclasts were observed, 100 µL supernatant was harvested from each well and placed in a black polypropylene 96-well microplate. Fluorescence intensity was measured using a SpectraMax i3x fluorescence plate reader (excitation wavelength 485 nm; emission wavelength 535 nm). The decalcified pit area was visible under a microscope and calculated using ImageJ software. F-actin rings were visible using a rhodamine-coupled phalloidin staining assay (Thermo Fisher Scientific) as previously described.
(§4) In FIG. 4C, the fluorescence intensity of each group after 6 days was measured at excitation and emission wavelengths of 485 nm and 535 nm, respectively. All experiments were repeated three times.

[2] = test system: osteoclast bone resorption; assay: Bone resorption analysis on fluoresceine amine-labeled calcium phosphate plates; format: cell-based, C57/BL6 mice
Method: as §3, §4

RANKL-induced BMM = assay: In vitro osteoclast formation assay (TRAP staining / TRAP activity); format: cell-based, C57/BL6 mice
Method: as §1, §2

[3] = test system: human IPSC-derived macrophages; assay: Human osteoclast differentiation model (TRAP staining / TRAP activity); format: cell-based; conditions: 10 days; 50 ng/mL hM-CSF and 100 ng/mL hRANKL
Method: However, it is unclear whether 25-KR-03 has an inhibitory effect on human osteoclast differentiation. Accordingly, a human osteoclast differentiation model was established using human IPSC-derived macrophages. Cells were incubated with 50 ng/mL human M-CSF and 100 ng/mL RANKL to induce mature osteoclast formation.
Specifically, in FIG. 7A, the inhibitory effect of 25-KR-03 on human osteoclast differentiation was analyzed through TRAP staining. Human IPSC-derived macrophages were treated with the indicated concentrations of 25-KR-03 for 10 days in the induction medium containing 50 ng/mL hM-CSF and 100 ng/mL hRANKL. After the formation of multinucleated osteoclasts, TRAP staining was performed to visualize the formed osteoclasts.

[4] = test system: OVX-induced osteoporosis mouse model; assay: OVX-induced osteoporosis mouse model (micro-CT, body weight); format: in vivo, C57BL/6 female mice
Method: Specific pathogen-free facilities were used to grow mice. To investigate the effects of 25-KR-03 in vivo, the inventors established an OVX-induced osteoporosis mouse model as previously described. Seven-week-old C57BL/6 female mice were divided into four groups (Sham, OVX, 25-KR-03, and PMSA-3-Ac). Among them, the OVX, 25-KR-03, and PMSA-3-Ac groups underwent OVX surgery.
After a 1-week recovery period, mice were intraperitoneally injected with 25-KR-03 or PMSA-3-Ac (20 mg/kg, dissolved in a mixture of 10 % Tween 80 and 10% DMSO) once daily for 4 weeks. The sham and control (OVX) groups received equal volumes of the mixture of 10 % Tween 80 and 10% DMSO once daily for 4 weeks. Body weights of the mice were measured weekly. When the mice were euthanized, the femurs were isolated and fixed in 4.0% paraformaldehyde for micro-computed tomography (micro-CT) analysis as previously performed.
Micro-CT scanning was performed as in previous studies. The Quantum GX Micro-CT imaging system (PerkinElmer, Hopkinton, MA, USA) was used at the Korea Basic Science Institute (Gwangju, Korea).

[5] = test system: osteoclast-specific genes; assay: Quantitative real-time PCR of osteoclast-specific genes; format: cell-based, C57/BL6 mice; conditions: Acp5, NFATc1, DC-STAMP, ATP6V0d2, MMP9 and Ctsk; 0, 1, 2, and 4 days
Excerpt: Total RNA from BMM was isolated using QIAzol RNA lysis reagent (Qiagen Sciences, Valencia, CA, USA).
Specifically, FIGS. 5A to 5F show the results of measuring the relative mRNA levels of the indicated osteoclast-specific genes using qRT-PCR with or without 25-KR-03 treatment for 0, 1, 2, and 4 days. Black bars represent M-CSF and RANKL treatment groups ("Con") and gray bars correspond to 25-KR-03 treatment groups. Transcript levels were normalized to expression at day 0. All experiments were repeated three times.

NFATc1 = assay: Western blotting analysis of osteoclast proteins and NFATc1 nuclear translocation; format: cell-based, C57/BL6 mice
Method: Total protein was extracted from osteoclasts and processed by a conventional method. To obtain total cell lysates, cells were lysed in ice-cold RIPA buffer for 30 min. After measuring the total protein concentration using the Enhanced BCA Protein Assay Kit, the protein was separated using 8-12% SDS-PAGE and transferred to a polyvinylidene fluoride membrane. Next, the membrane was blocked using 5% skim milk and incubated with a primary antibody (1:2,000 dilution) overnight. After incubation with a secondary antibody (1:2,000 dilution) for 1 hour, the membrane was washed and developed using an enhanced chemiluminescence (ECL) buffer as previously described. Relative protein expression was calculated by densitometric analysis using Image J software.
Specifically, in FIG. 6A, immunoblotting was performed for analysis. Culture was performed with or without 25-KR-03 for the indicated days in induction medium. […] GAPDH/LaminB1 was used as a loading control.

COC(=O)c1cccc(NCC(=O)Nc2ccccc2Sc2ccccc2)c1 [Compound 25-KR-03, Methyl 3-((2-oxo-2-((2-(phenylthio)phenyl)amino)ethyl)amino)benzoate]
cell viability of BMDMs (BMDMs): no significant effect | actin ring formation ([1]; at the indicated doses, RANKL/M-CSF-induced): inhibited | osteoclast F-actin belt formation, inhibition compared with control inhibitor ([1]; versus PMSA-3-Ac (10 µM)): more strongly than PMSA-3-Ac | resorption pit area ([2]; 0.5, 1, and 2 µM, M-CSF and RANKL, 6 days): significantly reduced | fluorescence intensity ([2]; dose-dependent manner, 6 days, excitation 485 nm, emission 535 nm): reduced | bone resorption inhibition compared with control inhibitor ([2]; versus PMSA-3-Ac): more effective than PMSA-3-Ac | inhibitory effect on osteoclast differentiation (RANKL-induced BMM; 2 µM, TRAP staining): almost complete inhibition | inhibition at 1 µM (RANKL-induced BMM; Mus musculus, 1 µM, osteoclast differentiation in RANKL-induced BMM, mean ± SD from at least three experiments, read-out: Inhibition rate (%)): 72.3 ± 6.33% | inhibition at 2 µM (RANKL-induced BMM; Mus musculus, 2 µM, osteoclast differentiation in RANKL-induced BMM, mean ± SD from at least three experiments, read-out: Inhibition rate (%)): 99.89 ± 0.04% | IC50 (RANKL-induced BMM; Mus musculus, Differentiation of BMDM, based on TRAP activity, 0 to 4000 nM): 323 nM | formation of multinucleated mature osteoclasts (RANKL-induced BMM; RANKL-induced, concentration range up to 4000 nM): completely blocked | inhibitory effect on human osteoclast differentiation [3]: has bioactivity in both mouse and human cells | prevention of bone loss (Tb.Th and BMD values, micro-CT of femur) ([4]; 20 mg/kg intraperitoneally once daily for 4 weeks after surgery, compared with the OVX group): slight but significant prevention of bone loss | body weight ([4]; 20 mg/kg intraperitoneally once daily, 4 weeks): no significant weight reduction | relative mRNA expression levels of RANKL-induced osteoclastogenesis-related genes [5]: obviously decreased | NFATc1 protein levels in the nucleus (NFATc1; BMDMs, 48 hours): significantly reduced | NFATc1 protein levels in the cytoplasm (NFATc1; BMDMs, 48 hours, not significant): slightly increased | protein expression of Ctsk (NFATc1; Western blotting): significantly inhibited | protein expression of NFATc1, Traf6, c-src, GSK3β and calcineurin A (NFATc1; Western blotting, compared to the control group): no significant effect
